Data reported in US20100015576A1, “METHOD AND APPARATUS FOR DIAGNOSTIC AND TREATMENT USING HARD TISSUE OR MATERIAL MICROPERFORATION” (RejuveDent LLC, priority 2007, published 2010).

Assays:
[1] = value used as input for the model calculation, cited from earlier work; for diffusion coefficient, peritubular: peritubular dentine; for diffusion coefficient, tubular: tubular dentine
[2] = In vivo whitening of teeth through laser microperforations
[3] = in 14 hours; 33% hydrogen peroxide on micro-perforations
Procedure: One freshly extracted lower human incisor was used in the experiment. Immediately after extraction, the tooth was stored in a 0.1% w/w thymol solution at a temperature of +4-6° C. for 3 weeks.

SMILES | diffusion coefficient in intertubular dentine [1] | diffusion coefficient, peritubular [1] | diffusion coefficient, tubular [1] | whitening effect (VITA scale) ([2]; Patient 1, 5 days after the procedure, peroxide 105 min at 37° C., 4 laser holes) | whitening effect (VITA scale) ([2]; Patient 1, 7 days after the procedure, peroxide 105 min at 37° C., 4 laser holes) | whitening effect (VITA scale) ([2]; Patients 2 and 3, 1 day after the procedure, peroxide 70 min / 45 min at 37° C.) | adverse effects on the oral mucosa ([2]; three patients) | pulp vitality (follow-up histopathology) ([2]; treated teeth, after extraction) | brown discoloration of the root surface [3]
O [water] | 1.74×10^−6 cm^2/sec | 1.74×10^−7 cm^2/sec | 1.74×10^−5 cm^2/sec |  |  |  |  |  | 
OO [hydrogen peroxide] | 3.6×10^−7 cm^2/sec | 3.6×10^−8 cm^2/sec | 3.6×10^−6 cm^2/sec | one shade | one more shade | two shades (A3 to A1) | didn't observe any adverse effects | confirmed the vitality of the pulp | completely bleached
